Assay results as given in US20070072209A1, “Methods of treatment and diagnosis of Kaposi's sarcoma (KS) and KS related diseases” (priority 2005, published 2007).

Assays:
Type in all cases: cell-based, human
KSHV-infected DMVEC [1] = test: PMO antisense inhibition of KSHV-induced spindle cell and foci formation (Example 3); conditions: for Extent of PMO-induced Inhibition of Spindle Cell Formation: KSHV-infected DMVEC loaded with gene-specific PMO antisense + EPEI; for Phenotype Inhibition (inhibition of spindle cell formation) / KSHV-induced spindle cell / foci formation (in words): KSHV-infected DMVEC; for Phenotype Inhibition (inhibition of spindle cell formation): gene-specific PMO antisense; for KSHV-induced spindle cell / foci formation (in words): PMO antisense, c-Kit: 1.25 nmol PMO + 2.5 μl EPEI per 35 mm dish
Description: Antisense Gene Silencing using PMOs. […] Silencing of such genes precluded progression into the transformed phenotype when silencing occurred prior to transformation, or induced reversion to the normal state when silencing occurred after induction of the transformed state (see TABLE 2 below).
Introduction of antisense PMO into KSHV-infected DMVEC. Antisense PMO molecules, for delivery purposes, are typically converted to a paired duplex together with a partially complementary cDNA oligonucleotide in the weakly basic delivery reagent ethoxylated polyethylenimine (EPEI) (Summerton, supra). The anionic complex binds to the cell surface, is taken up by endocytosis and eventually released into the cytosol. A protocol for optimum uptake of antisense PMO in immortalized DMVEC was developed using a modification of the EPEI method. Briefly, uninfected, immortalized DMVECs were incubated for 3 hours at 37° C. with 0.6 nmol/well FITC-PMO complexed with EPEI according to the manufacturer's instructions (GeneTools, LLC, One Summerton Way, Philomath, Oreg. 97370) (e.g., 1.25 nMol oligomer with 2.5 μl EPEI reagent per 35 mm dish, allowing for sufficient antisense uptake without non-specific EPEI-induced toxicity). The PMOs were labeled with FITC to allow for monitoring of loading efficiency by fluorescence microscopy.
Specifically, DMVEC were infected with KSHV, plated in 35 mm dishes and allowed to grow to about 90% confluence. For treatment, KSHV-infected cells were treated with the anti-c-Kit PMO-antisense oligomer-EPEI delivery reagent complex and incubated for 3 hours at 37° C. in serum-free medium to allow for oligomer uptake. A titration experiment testing a range of different oligomer/EPEI volumes was used to determine that loading 1.25 nmol oligomer with 2.5 μl EPEI reagent per 35 mm dish allowed efficient antisense uptake without non-specific EPEI-induced toxicity. Control (mock-treated) DMVEC cultures were loaded with EPEI reagent and sterile water or sterile water alone. Upon removal of the oligomer-EPEI solution, cell monolayers were rinsed in serum-free medium fed with complete medium and examined daily for one week by phase microscopy for evidence of phenotypic change.

KSHV-infected DMVEC [2] = test: XTT proliferation assay of PMO-loaded KSHV-infected DMVEC (Example 3); conditions: PMO antisense silencing
Protocol: Proliferation assays, and loading of cells with PMOs. Proliferation of KSHV-infected DMVEC was quantified using an XTT (2,3-bis-(2-methoxy-4-nitro-5-sulfophenyl)-2H-tetrazolium-5-carboxanilide, disodium salt)-based assay. KSHV-infected cells were added to Primaria 96-well trays (Becton Dickinson) at 1×10^4 or 5×10^4 cells/well. XTT (Roche, Molecular Biochemicals, Indianapolis, Ind.) was added 48 hours later according to the manufacturer's instructions. Absorbance was read after 4 to 6 hours on a microplate reader.
Briefly, cells were plated in 96-well trays at a density approaching confluence (5×10^4 cells per well) in 100 μl of complete medium. PMOs were loaded the following day in a total of 100 μl (0.5 μl PMO, 0.5 μl EPEI, 49 μl H2O and 50 μl serum free medium) with reagent mixing as described by the manufacturer (GeneTools). Controls included a FITC PMO control oligonucleotide, EPEI only or H2O only. Each variable was performed in quadruplicate. Fresh complete medium was replaced 4 hours after loading. Cells were cultured for 4 days to allow for multi-layered cell growth post-confluence in the absence of any growth inhibition. XTT was added on day 4 of culture and the absorbance read 4 hrs later on a microplate reader. Cell proliferation (growth) values are given as percentage inhibition values, relative to cells without PMO, which are adjusted to 100%.

KSHV-infected DMVEC [3] = test: Morpholino treatment and focus inhibition assay (Example 5); conditions: for Foci/spindle morpholigical inhibition: PMO-treated KSHV-infected DMVEC vs control PMO, repeated three times
Protocol: Morpholino Treatment and Focus Inhibition Assay. Phosphorodiamidate morpholino antisense oligonucleotides (PMO-AS) were designed and synthesized by Gene Tools LLC (Philomath, Oreg.) as a Special Delivery formulation, which pairs the morpholino with a partially complementary DNA oligo. A weakly basic delivery agent, Ethoxylated Polyethlyenimine (EPEI) is then used to deliver the anionic morpholino/DNA duplex into the cytosol. PMO-AS were received as sterile, lyophilized solids ([…]) that were solubilized in sterile water to obtain 0.5 mM stock solutions. To load a 35 mm dish of DMVEC at 90% confluence, 5 microl of stock solution was mixed with 5 microl of EPEI delivery solution in 590 μl H20 for 20 minutes at room temperature, and then mixed with 1.5 ml of serum-free RPMI medium. Endothelial growth media was removed from DMVEC, and replaced with the PMO-AS:EPEI:RPMI delivery solution for 3 hours in a 37° C. incubator. After incubation, cells were rinsed, complete endothelial growth medium was added and cells were cultured for up to 10 days without sub-culture, with media replacement every 48-72 hours. This protocol allows for the characteristic post-confluent growth and development of multi-layered spindle-cell aggregates (foci) in KSHV-infected cultures. Cells were monitored daily under the phase microscope to evaluate PMO-AS-inhibition of the development of these foci. At the conclusion of an assay, cells were fixed in 2% paraformaldehyde and stained with a MAB against CD31 (Dako; 1:100) followed by a goat-anti-mouse FITC second conjugate. Junctional staining of cells with CD31 accentuated the disorganized multi-layered nature of the spindle cell aggregates as composed to the flat, organized profile of contact-inhibited cells.
For these assays, KSHV-infected DMVEC monolayers were cultured to 90% confluence and then loaded with each PMO-AS, or maintained as unloaded controls. Cultures were observed daily until control cultures had developed prominent multi-layered aggregates of spindle cells. Typically this took 5-10 days with some variation between replicate experiments. Each experiment was performed at least three times and was performed with mock-infected as well as KSHV-infected DMVEC. As expected, mock-infected DMVEC maintained a quiescent monolayer at confluence, and PMO-AS treatment of uninfected cells occurred without any adverse effect. This observation allowed verification that none of the gene knockdown treatments induced non-specific toxicity in DMVEC. The majority of tested PMO-AS had no effect on the ability of KSHV-infected DMVEC to grow post-confluence and form disorganized, multi-layered foci (TABLE 2).

Row | Substance | Extent of PMO-induced Inhibition of Spindle Cell Formation (KSHV-infected DMVEC [1]) | Phenotype Inhibition (inhibition of spindle cell formation) (KSHV-infected DMVEC [1]) | KSHV-induced spindle cell / foci formation (in words) (KSHV-infected DMVEC [1]) | inhibition of KSHV-induced cellular proliferation (in words) (KSHV-infected DMVEC [2]) | Foci/spindle morpholigical inhibition (KSHV-infected DMVEC [3]) | effect on phenotype (foci, spindle shape) in focus-inhibition assay (in words) (KSHV-infected DMVEC [3]; PMO-AS, KSHV-infected DMVEC, 5-10 days)
1 | MFAP3: PMO antisense to MFAP3, TGAATAAGCAACAATGTAGCTTCAT (SEQ ID NO:24) (all phosphorodiamidate morpholino (PMO); delivered paired with partially complementary DNA oligo (Special Delivery, EPEI)) | none | no and None | little or no affect | relatively little or no significant inhibition | None | –
2 | LMO2: PMO antisense to LMO2, GCCGAGGACATTGGGGAGGGAGGCG (SEQ ID NO:23) (all phosphorodiamidate morpholino (PMO); delivered paired with partially complementary DNA oligo (Special Delivery, EPEI)) | none | – | little or no affect | – | None | –
3 | IGFBP2: PMO antisense to IGFBP2, GGCAGCCCACTCTCTCGGCAGCATG (SEQ ID NO:16) (all phosphorodiamidate morpholino (PMO); delivered paired with partially complementary DNA oligo (Special Delivery)) | full | Full | fully reversed spindle cell formation | substantial inhibition | Full | –
4 | ANGPTL2: PMO antisense to ANGPTL2, AGCATGTCACGCACAGTGGCCTCAT (SEQ ID NO:33) (all phosphorodiamidate morpholino (PMO); delivered paired with partially complementary DNA oligo (Special Delivery)) | intermediate | Intermediate | intermediate inhibitory effects | – | – | –
5 | LOX: PMO antisense to LOX, GGAGCACGGTCCAGGCGAAGCGCAT (SEQ ID NO:31) (all phosphorodiamidate morpholino (PMO); delivered paired with partially complementary DNA oligo (Special Delivery, EPEI)) | full | Full | fully reversed spindle cell formation | – | – | –
6 | Osteopontin | – | None | – | relatively little or no significant inhibition | None | –
7 | IFACTOR: PMO antisense to IFACTOR, AGCTTCATGTTGGAGGTGTTCG (SEQ ID NO:22) (all phosphorodiamidate morpholino (PMO); delivered paired with partially complementary DNA oligo (Special Delivery)) | none | None | little or no affect | relatively little or no significant inhibition | – | –
8 | K1AA0367: PMO antisense to KIAA0367, GTCAGTTTACTCATGTCATCTATTG (SEQ ID NO:18) (all phosphorodiamidate morpholino (PMO); delivered paired with partially complementary DNA oligo (Special Delivery)) | intermediate | Intermediate | intermediate inhibitory effects | substantial inhibition | – | –
9 | NOV: PMO antisense to NOV, AGCTCGTGCTCTGCACACTCTGCAT (SEQ ID NO:32) (all phosphorodiamidate morpholino (PMO); delivered paired with partially complementary DNA oligo (Special Delivery, EPEI)) | full | Full | fully reversed spindle cell formation | – | – | –
10 | INSR: PMO antisense to INSR, GGGTCTCCTCGGATCAGGCGCG (SEQ ID NO:20) (all phosphorodiamidate morpholino (PMO); delivered paired with partially complementary DNA oligo (Special Delivery)) | intermediate | Intermediate | intermediate inhibitory effects | substantial inhibition | Intermediate | marginal but reproducible effect on phenotype
